Source: PubChem BioAssay AID1963972 (Molecular Pharmacology Branch, DTP, NCI, 2024)

Tested on: 945468-187-T-J2-PDC spheroids viability
Assay: Anticancer human tumor 945468-187-T-J2-PDC patient-derived rectal carcinoma cell line growth inhibition [PI3K]
Settings: spheroids with HUVEC and MSC; for IC50: curve of first compound; for viability, T/C: stronger effect = lower value
Outline: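 Complex 3D spheroids (cancer cells + endothelial HUVEC + mesenchymal stem cells); drug pairs of targeted agent x inavolisib/alpelisib/duvelisib/copanlisib; half-log series from ~Cmax, max 10 microM if Cmax unknown; endpoint viability.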

[1] = second compound 0.0316 µM, first compound 0.0316 µM
[2] = second compound 0.0316 µM, first compound 0.1 µM
[3] = second compound 0.1 µM, first compound 0.0316 µM
[4] = second compound 0.1 µM, first compound 0.1 µM
[5] = second compound 0.316 µM, first compound 0.0316 µM
[6] = second compound 0.316 µM, first compound 0.1 µM
[7] = second compound 1 µM, first compound 0.0316 µM
[8] = second compound 1 µM, first compound 0.1 µM
[9] = second compound 3.16 µM, first compound 0.0316 µM
[10] = second compound 3.16 µM, first compound 0.1 µM
[11] = second compound 10 µM, first compound 0.0316 µM
[12] = second compound 10 µM, first compound 0.1 µM
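Note: spheroids exposed to compounds for seven days before reading.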

## CC(C)n1nc(-c2ccc3oc(N)nc3c2)c2c(N)ncnc21 + CC(Nc1ncnc2nc[nH]c12)c1cc2cccc(Cl)c2c(=O)n1-c1ccccc1
Second compound 0.0316 µM
  IC50: > 0.1 µM
Second compound 0.1 µM
  IC50: > 0.1 µM
Second compound 0.316 µM
  IC50: > 0.1 µM
Second compound 1 µM
  IC50: > 0.1 µM
Second compound 3.16 µM
  IC50: > 0.1 µM
Second compound 10 µM
  IC50: > 0.1 µM
Second compound 0.0316 µM, first compound 0.000316 µM
  viability, T/C: 93.8%
Second compound 0.0316 µM, first compound 0.001 µM
  viability, T/C: 87.3%
Second compound 0.0316 µM, first compound 0.00316 µM
  viability, T/C: 96.4%
Second compound 0.0316 µM, first compound 0.01 µM
  viability, T/C: 107%
[1]
  viability, T/C: 117%
[2]
  viability, T/C: 62.8%
Second compound 0.1 µM, first compound 0.000316 µM
  viability, T/C: 96.2%
Second compound 0.1 µM, first compound 0.001 µM
  viability, T/C: 94.3%
Second compound 0.1 µM, first compound 0.00316 µM
  viability, T/C: 99.4%
Second compound 0.1 µM, first compound 0.01 µM
  viability, T/C: 84.2%
[3]
  viability, T/C: 115%
[4]
  viability, T/C: 73.5%
Second compound 0.316 µM, first compound 0.000316 µM
  viability, T/C: 97.1%
Second compound 0.316 µM, first compound 0.001 µM
  viability, T/C: 89%
Second compound 0.316 µM, first compound 0.00316 µM
  viability, T/C: 94.7%
Second compound 0.316 µM, first compound 0.01 µM
  viability, T/C: 134%
[5]
  viability, T/C: 96.1%
[6]
  viability, T/C: 71%
Second compound 1 µM, first compound 0.000316 µM
  viability, T/C: 87.6%
Second compound 1 µM, first compound 0.001 µM
  viability, T/C: 136%
Second compound 1 µM, first compound 0.00316 µM
  viability, T/C: 95.8%
Second compound 1 µM, first compound 0.01 µM
  viability, T/C: 93.2%
[7]
  viability, T/C: 78.2%
[8]
  viability, T/C: 55%
Second compound 3.16 µM, first compound 0.000316 µM
  viability, T/C: 85.5%
Second compound 3.16 µM, first compound 0.001 µM
  viability, T/C: 107%
Second compound 3.16 µM, first compound 0.00316 µM
  viability, T/C: 90.3%
Second compound 3.16 µM, first compound 0.01 µM
  viability, T/C: 106%
[9]
  viability, T/C: 92.9%
[10]
  viability, T/C: 62.3%
Second compound 10 µM, first compound 0.000316 µM
  viability, T/C: 109%
Second compound 10 µM, first compound 0.001 µM
  viability, T/C: 84.5%
Second compound 10 µM, first compound 0.00316 µM
  viability, T/C: 108%
Second compound 10 µM, first compound 0.01 µM
  viability, T/C: 88.4%
[11]
  viability, T/C: 78.2%
[12]
  viability, T/C: 82.8%

## CCCS(=O)(=O)Nc1ccc(F)c(C(=O)c2c[nH]c3ncc(-c4ccc(Cl)cc4)cc23)c1F + CC(Nc1ncnc2nc[nH]c12)c1cc2cccc(Cl)c2c(=O)n1-c1ccccc1
Second compound 0.0316 µM
  IC50: 4.52 µM
Second compound 0.1 µM
  IC50: 5.03 µM
Second compound 0.316 µM
  IC50: 5.4 µM
Second compound 1 µM
  IC50: 5.82 µM
Second compound 3.16 µM
  IC50: 5.92 µM
Second compound 10 µM
  IC50: 5.63 µM
[1]
  viability, T/C: 105%
[2]
  viability, T/C: 103%
Second compound 0.0316 µM, first compound 0.316 µM
  viability, T/C: 104%
Second compound 0.0316 µM, first compound 1 µM
  viability, T/C: 89.2%
Second compound 0.0316 µM, first compound 3.16 µM
  viability, T/C: 73.4%
Second compound 0.0316 µM, first compound 10 µM
  viability, T/C: 2.78%
[3]
  viability, T/C: 132%
[4]
  viability, T/C: 83.2%
Second compound 0.1 µM, first compound 0.316 µM
  viability, T/C: 89%
Second compound 0.1 µM, first compound 1 µM
  viability, T/C: 93.8%
Second compound 0.1 µM, first compound 3.16 µM
  viability, T/C: 83.8%
Second compound 0.1 µM, first compound 10 µM
  viability, T/C: 4.23%
[5]
  viability, T/C: 107%
[6]
  viability, T/C: 110%
Second compound 0.316 µM, first compound 0.316 µM
  viability, T/C: 85.2%
Second compound 0.316 µM, first compound 1 µM
  viability, T/C: 107%
Second compound 0.316 µM, first compound 3.16 µM
  viability, T/C: 89.6%
Second compound 0.316 µM, first compound 10 µM
  viability, T/C: 4.32%
[7]
  viability, T/C: 104%
[8]
  viability, T/C: 99.2%
Second compound 1 µM, first compound 0.316 µM
  viability, T/C: 93%
Second compound 1 µM, first compound 1 µM
  viability, T/C: 99.6%
Second compound 1 µM, first compound 3.16 µM
  viability, T/C: 108%
Second compound 1 µM, first compound 10 µM
  viability, T/C: 4.79%
[9]
  viability, T/C: 98.6%
[10]
  viability, T/C: 106%
Second compound 3.16 µM, first compound 0.316 µM
  viability, T/C: 100%
Second compound 3.16 µM, first compound 1 µM
  viability, T/C: 98.8%
Second compound 3.16 µM, first compound 3.16 µM
  viability, T/C: 113%
Second compound 3.16 µM, first compound 10 µM
  viability, T/C: 5.45%
[11]
  viability, T/C: 98.2%
[12]
  viability, T/C: 93.9%
Second compound 10 µM, first compound 0.316 µM
  viability, T/C: 101%
Second compound 10 µM, first compound 1 µM
  viability, T/C: 95.6%
Second compound 10 µM, first compound 3.16 µM
  viability, T/C: 93.5%
Second compound 10 µM, first compound 10 µM
  viability, T/C: 6.8%
